Legend:
[1] = test system: Mr = 72,000 brush border membrane protein; conditions: 10 μM cyclic AMP
Source text: The preparation of the rat renal proximal brush border membrane vesicles was accomplished in the following manner: When the systolic blood pressure in the DOCA and the 2K1C rat groups became elevated compared with each of the control groups (usually in 3-4 weeks), the kidney cortex was removed to prepare the proximal brush border membrane vesicles by a calcium precipitation method as described in Kempson et al., Inhibition of Renal Brush Border Phosphate Transport and Stimulation of Renal Gluconeogenesis by Cyclic AMP and Parathyroid Hormone, Biochem., Pharmacol., 32:pp. 1533-37 (1983). Vesicles were utilized only if there was at least an 8-fold enrichment in gamma-glutamyl transpeptidase activity in the proximal brush border membrane fraction compared to the original cortical homogenate. […]
The test results reported herein were determined by SDS polyacrylamide gel electrophoresis, autoradiography and densitometry. […] Protein concentration was determined by the method of Bradford using bovine serum albumin as a standard.
Autoradiography and densitometry were performed in accordance with Laminski, et al., Phosphorylation of Endogenous Protein in Primate Kidney. […] Scan traces were recorded with an Ultroscan XL laser densitometer (Pharmacia, LKB) and analyzed by using the computer GelScan XL Software (Version 2.1, Pharmacia).

[2] = Systolic blood pressure by tail-cuff method in DOCA-salt hypertensive rats; assay type: in vivo, rat; conditions: mean±SEM
Method: (§1) Male Sprague-Dawley rats, weighing 125-150 g (Charles River, Wilmington, Mass.), were randomly divided into three groups: (1) DOCA-salt group-rats underwent unilateral nephrectomy and were given an initial injection of 12.5 mg of deoxycorticosterone acetate (DOCA) followed by 6.5 mg weekly which was coupled with 1 percent saline as drinking water (Pamani et al. Altered Activity of the Sodium-Potassium Pump in Arteries of Rats with Steroid Hypertension, Clin. Sci. Mol. Med., 55:pp. 41s-43s (1978); (2) Uninephrectomized control group (UNE)-rats underwent unilateral nephrectomy and were given tap water ad libitum; (3) Normal group-normal rats drank tap water ad libitum and were not subjected to surgery. All three groups were maintained on normal rat chow. Systolic blood pressure was measured weekly by the tail-cuff method.
Referring to FIG. 1, there is shown a plot of systolic blood pressure in mm Hg versus time in days. The study involved ten rats in each of the three DOCA categories: (a) DOCA-salt; (b) UNE-uninephrectomized; and (c) NOR, normal group. The 2K1C study involved eight rats in each of the three groups: (a) 2K1C; (b) SHAM, sham-operated group; and (c) NOR, normal group.
The systolic blood pressure in the 2K1C rats increased from 121.4±1.7 mm Hg to 137.6±3.0 mm Hg by the first week after surgery and to 173.5±4.4 mm Hg by the 21st day (p<0.001). […]

[3] = test system: Mr = 72,000 brush border membrane protein; experiment: Phosphorylation of 72,000 Mr renal brush border membrane protein from treated rats (SDS-PAGE, autoradiography, densitometry); assay type: in vivo, rat; conditions: for relative area units under the peak in the densitometry tracings of autoradiogram of the Mr = 72,000 brush border membrane protein: mean ± SEM
Method: as §1, with “([…]” for “(Pamani”, “method. […] J. Biol. Chem. 257:pp 992-99 (1982). […] Anal Biochem, 72:pp. 248-54 (1976). Autoradiography and densitometry were performed in accordance with […], et al., Phosphorylation of Endogenous Protein in Primate Kidney. […] Biochem. Physiol. 103B:pp 267-73 (1992). […] Data is expressed as mean±SEM, with statistical significance being calculated by Student's t test and the ANOVA test.” for “method.”

SMILES	influence of cAMP on phosphorylation of the Mr=72,000 protein ([1]; membranes from 2K1C, Sham and Normal rats)	effect of addition of cyclic AMP on phosphorylation of the Mr=72,000 protein ([1]; membranes from DOCA, UNE and Normal rats)	systolic blood pressure ([2]; 7th day of treatment)	systolic blood pressure ([2]; 21st day, p<0.001)	relative area units under the peak in the densitometry tracings of autoradiogram of the Mr = 72,000 brush border membrane protein ([3]; +cAMP (10 μM cyclic AMP in incubation mixture))	phosphorylation of the Mr=72,000 protein compared with UNE and normal rats ([3]; DOCA group rats, p<0.01)	relative area units under the peak in the densitometry tracings of autoradiogram of the Mr = 72,000 brush border membrane protein ([3]; −cAMP (no cyclic AMP in incubation mixture))
Nc1ncnc2c1ncn2[C@@H]1O[C@@H]2COP(=O)(O)O[C@H]2[C@H]1O [cyclic AMP]	not influenced	did not affect	–	–	–	–	–
CC(=O)OCC(=O)[C@H]1CC[C@H]2[C@@H]3CCC4=CC(=O)CC[C@]4(C)[C@H]3CC[C@]12C [DOCA, deoxycorticosterone acetate]	–	–	128.9±2.1 mm Hg	188.2±5.3 mm Hg	1.218 ± 0.33 relative area units	significant attenuation	1.389 ± 0.37 relative area units
